Read-outs that look alike come from different tables or passages of the source.
Columns and labels:
[1] = test system: HepaRG spheroids; assay: Combined HCI (HCS) and cellular ATP 3D assay in HepaRG spheroids; details: for AC50 / minimal effective concentration: Homo sapiens
[2] = cited from earlier work
[3] = test system: THLE or HepG2 cells, isolated mitochondria, BSEP; details: cited from earlier work
[4] = test system: hLiMTs; details: cited from earlier work
[5] = ref Chen 2011; cited from earlier work
[6] = cited from earlier work; remark: listed apart in the source
[7] = plasma free fraction; cited from earlier work
[8] = test system: PHH; details: cited from earlier work
[9] = test system: HepG2 C3A spheroid, BSEP, Glu/Gal in HepG2 cells, bioactivation; details: cited from earlier work
[10] = test system: primary human hepatocytes, NIH3T3 fibroblasts, BSEP, CYP3A4; details: cited from earlier work
[11] = test system: hLiMTs; assay: Combined HCI (HCS) and cellular ATP 3D assay in hLiMTs; details: for AC50 / minimal effective concentration: Homo sapiens
[12] = Microtissue model structural based (HCI), combined HCS and ATP, MEC < 25 × Cmax.tot cut-off
[13] = Modeled in vitro assays (cytotoxicity, mitochondrial dysfunction, BSEP), ref Aleo et al. 2019
[14] = In vitro Assay, ref Proctor 2017
[15] = In vitro Assay, ref Schadt 2015

Compound: CS(=O)(=O)CCNCc1ccc(-c2ccc3ncnc(Nc4ccc(OCc5cccc(F)c5)c(Cl)c4)c3c2)o1 [lapatinib]
- HepaRG <25x Avg Cmax ATP ([1]; HepaRG, ATP endpoint, cut-off <25x Avg Cmax): +ve
- HepaRG <100x Avg Cmaxu ATP ([1]; HepaRG, ATP endpoint, cut-off <100x Avg Cmaxu): +ve (<100x Avg Cmaxu)
- HepaRG <25x Avg Cmax HCS ([1]; HepaRG, HCS endpoints, cut-off <25x Avg Cmax): +ve
- HepaRG <100x Avg Cmaxu HCS ([1]; HepaRG, HCS endpoints, cut-off <100x Avg Cmaxu): +ve (<100x Avg Cmaxu)
- HepaRG <25x Avg Cmax All ([1]; HepaRG, all endpoints (ATP and HCS), cut-off <25x Avg Cmax): +ve
- HepaRG Cmax max All ([1]; HepaRG, all endpoints, Cmax max used): +ve
- HepaRG Cmax min All ([1]; HepaRG, all endpoints, Cmax min used): +ve
- HepaRG <10 uM All ([1]; HepaRG, all endpoints, cut-off <10 uM): +ve (<10 uM)
- HepaRG <100x Avg Cmaxu All ([1]; HepaRG, all endpoints, cut-off <100x Avg Cmaxu): +ve (<100x Avg Cmaxu)
- AC50 ([1]; HepaRG, read-out: ATP endpoint AC50): 2.11 µM
- minimal effective concentration ([1]; HepaRG, read-out: ATP endpoint MEC): 1.21 µM
- AC50 ([1]; HepaRG, read-out: HCS endpoint AC50): 2.25 µM
- minimal effective concentration ([1]; HepaRG, read-out: HCS endpoint MEC): 0.768 µM
- DILI prediction HepaRG spheroids (HCS-MEC) [1, 12]: +VE (MEC < 25 × Cmax.tot cut-off)
- Assigned DILI category ([2]; Chen et al. 2016 or literature alignment, ref Chen et al. 2016): 3
- In vivo DILI ([2]; ref Aleo 2019): +VE
- In vivo DILI ([2]; ref Proctor 2017): +VE
- In vivo DILI ([2]; ref Schadt 2015): +VE
- In vivo DILI ([2]; ref Williams 2019): +VE
- Partition Hybrid HRM Score ([3]; In vitro Assay, ref Aleo 2019): +VE
- Ro2 Hybrid HRM Score ([3]; In vitro Assay, ref Aleo 2019): +VE
- Partition Hybrid HRM Score ≥4, Aleo (2019) [3, 13]: +VE (Partition Hybrid HRM Score ≥4)
- Partition Hybrid HRM Score ≥8, Aleo (2019) [3, 13]: +VE (Partition Hybrid HRM Score ≥8)
- Rule of Two hybrid HRM Score ≥3, Aleo (2019) [3, 13]: +VE (Rule of Two hybrid HRM Score ≥3)
- Rule of Two hybrid HRM Score ≥8, Aleo (2019) [3, 13]: +VE (Rule of Two hybrid HRM Score ≥8)
- hLiMTs ATP <100uM [4, 14]: +VE (IC50 threshold of 100 µM)
- hLiMTs/100uM, Proctor (2017) ([4]; hLiMTs, ATP, IC50 threshold 100 µM, ref Proctor et al. 2017): +VE (IC50 threshold of 100 µM)
- DILI Score (FDA) (1-8) [5]: 8
- DILI severity category (Chen et al. [2016]) ([6]; LTKB DILIrank category, ref Chen et al. 2016): Most
- DILI severity category (Chen 2016) ([6]; human DILI classification, LTKB DILIrank, ref Chen et al. 2016): Most
- DILI severity category ([6]; human DILI severity, ref Chen et al.): Most
- DILI +VE (5-8), DILI -VE (-4) ([6]; ref Chen 2016): +VE
- DILI severity category ([6]; ref Chen 2016): vMost-DILI-Concern
- fu [7]: 0.010
- PHH/100uM, Proctor (2017) ([8]; 2D PHH, ATP, IC50 threshold 100 µM, ref Proctor et al. 2017): +VE (IC50 threshold of 100 µM)
- PHH ATP <100uM [8, 14]: +VE (IC50 threshold of 100 µM)
- Bayesian Machine Learning DILI prediction, Williams (2019) ([9]; Bayesian modeling, ref Williams et al. 2019): +VE
- Bayesian Machine Learning ([9]; In vitro Assay, ref Williams 2019): +VE
- DILI in vitro assay prediction, Schadt (2015) ([10]; BSEP & Metabolism based, ref Schadt et al. 2015): +VE
- Cellular toxicity (3T3 cells) [10, 15]: +VE
- GSH adduct HML [10, 15]: +VE
- Hepatocyte cellular toxicity [10, 15]: -VE
- MitoTox 3T3 [10, 15]: -VE
- TDI CYP3A4 [10, 15]: +VE
- hBSEP inhibition [10, 15]: -VE
- AC50 ([11]; read-out: ATP endpoint AC50): 30.1 µM
- minimal effective concentration ([11]; read-out: ATP endpoint MEC): 12.6 µM
- AC50 ([11]; read-out: HCS endpoint AC50): 30.7 µM
- minimal effective concentration ([11]; read-out: HCS endpoint MEC): 1.79 µM
- DILI prediction hLiMTs (HCS-MEC) [11, 12]: +VE (MEC < 25 × Cmax.tot cut-off)
- hLiMTs <25x Avg Cmax ATP ([11]; hLiMTs, ATP endpoint, cut-off <25x Avg Cmax): +ve
- hLiMTs <100x Avg Cmaxu ATP ([11]; hLiMTs, ATP endpoint, cut-off <100x Avg Cmaxu): -ve
- hLiMTs <25x Avg Cmax HCS ([11]; hLiMTs, HCS endpoints, cut-off <25x Avg Cmax): +ve
- hLiMTs <100x Avg Cmaxu HCS ([11]; hLiMTs, HCS endpoints, cut-off <100x Avg Cmaxu): +ve (<100x Avg Cmaxu)
- hLiMTs <25x Avg Cmax All ([11]; hLiMTs, all endpoints (ATP and HCS), cut-off <25x Avg Cmax): +ve
- hLiMTs Cmax max All ([11]; hLiMTs, all endpoints, Cmax max used): +ve
- hLiMTs Cmax min All ([11]; hLiMTs, all endpoints, Cmax min used): +ve
- hLiMTs <10 uM All ([11]; hLiMTs, all endpoints, cut-off <10 uM): +ve (<10 uM)
- hLiMTs <100x Avg Cmaxu All ([11]; hLiMTs, all endpoints, cut-off <100x Avg Cmaxu): +ve (<100x Avg Cmaxu)

— article PMC7395068, “The evolution of strategies to minimise the risk of human drug-induced liver injury (DILI) in drug discovery and development” (Archives of Toxicology, 2020)
